Source: patent publication US20200239530A1, “COMPOUNDS AND METHODS OF MODULATING PROTEIN DEGRADATION” (Vividion Therapeutics, Inc., priority 2017, published 2020)

What was measured:
Assay in all cases: Cysteine liganding, probe competition
Format in all cases: binding
FDFT1 Squalene synthase = target: T1, FDFT1 Squalene synthase (Homo sapiens, UniProt P37268)
T1 construct: 200 μL of lysate containing 5 mg/ml proteome was treated with 2 μL of 100× compound stock; endogenous in cells
T1 sequence (P37268 1-417): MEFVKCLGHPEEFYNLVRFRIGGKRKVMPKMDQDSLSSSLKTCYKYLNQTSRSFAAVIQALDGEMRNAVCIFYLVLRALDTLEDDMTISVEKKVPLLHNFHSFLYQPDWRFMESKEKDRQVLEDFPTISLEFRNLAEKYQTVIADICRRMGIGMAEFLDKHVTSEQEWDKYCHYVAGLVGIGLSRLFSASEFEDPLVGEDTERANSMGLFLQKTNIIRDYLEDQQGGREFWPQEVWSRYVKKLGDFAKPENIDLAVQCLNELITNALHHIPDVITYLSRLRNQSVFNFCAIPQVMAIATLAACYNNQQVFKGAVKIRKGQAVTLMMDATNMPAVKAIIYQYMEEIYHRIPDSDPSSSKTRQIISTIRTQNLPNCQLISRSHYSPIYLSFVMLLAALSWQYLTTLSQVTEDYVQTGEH
In short: (§1)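 Probe competition in native proteome: 5 mg/ml lysate, compound 1 hr 25° C, then desthiobiotin iodoacetamide (10 mM stock) 1 hr 25° C; acetone ppt, urea/DTT reduction, iodoacetamide alkylation, trypsin, streptavidin pull-down.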

[1] = target: T2, ALDH1L2 Mitochondrial 10-formyltetrahydrofolate dehydrogen (Homo sapiens, UniProt Q3SY69)
T2 construct: 200 μL of lysate containing 5 mg/ml proteome was treated with 2 μL of 100× compound stock; endogenous in cells
T2 sequence (Q3SY69 1-923): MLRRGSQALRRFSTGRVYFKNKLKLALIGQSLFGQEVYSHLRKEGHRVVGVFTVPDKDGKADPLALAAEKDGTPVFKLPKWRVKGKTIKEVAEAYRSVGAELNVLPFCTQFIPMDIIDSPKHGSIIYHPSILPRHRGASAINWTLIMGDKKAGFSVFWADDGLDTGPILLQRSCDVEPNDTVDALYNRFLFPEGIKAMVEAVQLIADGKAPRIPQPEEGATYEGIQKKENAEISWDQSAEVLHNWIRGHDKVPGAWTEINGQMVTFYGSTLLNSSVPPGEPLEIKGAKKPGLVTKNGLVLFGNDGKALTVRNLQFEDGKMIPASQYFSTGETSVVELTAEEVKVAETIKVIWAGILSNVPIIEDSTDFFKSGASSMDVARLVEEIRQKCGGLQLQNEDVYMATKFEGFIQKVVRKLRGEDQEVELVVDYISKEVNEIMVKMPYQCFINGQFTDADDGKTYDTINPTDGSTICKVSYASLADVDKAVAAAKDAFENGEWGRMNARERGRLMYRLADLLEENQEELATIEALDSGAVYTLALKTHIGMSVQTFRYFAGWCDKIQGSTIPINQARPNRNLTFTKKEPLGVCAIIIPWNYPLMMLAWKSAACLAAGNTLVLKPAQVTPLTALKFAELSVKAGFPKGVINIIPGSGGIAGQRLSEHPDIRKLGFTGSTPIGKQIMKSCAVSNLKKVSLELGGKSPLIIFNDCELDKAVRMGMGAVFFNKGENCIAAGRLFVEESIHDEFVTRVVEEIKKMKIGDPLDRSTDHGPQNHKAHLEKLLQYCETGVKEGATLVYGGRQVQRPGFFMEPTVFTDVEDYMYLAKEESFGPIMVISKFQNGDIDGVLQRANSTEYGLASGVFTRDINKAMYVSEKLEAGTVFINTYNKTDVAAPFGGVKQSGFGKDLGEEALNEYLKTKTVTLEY
In short: as §1

[2] = target: T3, SPAG5 Sperm-associated antigen 5 (Homo sapiens, UniProt Q96R06); conditions: SPAG5 Res# 382, uniprot Q96R06
T3 construct: Cells were resuspended in cold PBS on ice and sonicated with a probe sonicator to achieve lysis; endogenous in cells
T3 sequence (Q96R06 whole entry): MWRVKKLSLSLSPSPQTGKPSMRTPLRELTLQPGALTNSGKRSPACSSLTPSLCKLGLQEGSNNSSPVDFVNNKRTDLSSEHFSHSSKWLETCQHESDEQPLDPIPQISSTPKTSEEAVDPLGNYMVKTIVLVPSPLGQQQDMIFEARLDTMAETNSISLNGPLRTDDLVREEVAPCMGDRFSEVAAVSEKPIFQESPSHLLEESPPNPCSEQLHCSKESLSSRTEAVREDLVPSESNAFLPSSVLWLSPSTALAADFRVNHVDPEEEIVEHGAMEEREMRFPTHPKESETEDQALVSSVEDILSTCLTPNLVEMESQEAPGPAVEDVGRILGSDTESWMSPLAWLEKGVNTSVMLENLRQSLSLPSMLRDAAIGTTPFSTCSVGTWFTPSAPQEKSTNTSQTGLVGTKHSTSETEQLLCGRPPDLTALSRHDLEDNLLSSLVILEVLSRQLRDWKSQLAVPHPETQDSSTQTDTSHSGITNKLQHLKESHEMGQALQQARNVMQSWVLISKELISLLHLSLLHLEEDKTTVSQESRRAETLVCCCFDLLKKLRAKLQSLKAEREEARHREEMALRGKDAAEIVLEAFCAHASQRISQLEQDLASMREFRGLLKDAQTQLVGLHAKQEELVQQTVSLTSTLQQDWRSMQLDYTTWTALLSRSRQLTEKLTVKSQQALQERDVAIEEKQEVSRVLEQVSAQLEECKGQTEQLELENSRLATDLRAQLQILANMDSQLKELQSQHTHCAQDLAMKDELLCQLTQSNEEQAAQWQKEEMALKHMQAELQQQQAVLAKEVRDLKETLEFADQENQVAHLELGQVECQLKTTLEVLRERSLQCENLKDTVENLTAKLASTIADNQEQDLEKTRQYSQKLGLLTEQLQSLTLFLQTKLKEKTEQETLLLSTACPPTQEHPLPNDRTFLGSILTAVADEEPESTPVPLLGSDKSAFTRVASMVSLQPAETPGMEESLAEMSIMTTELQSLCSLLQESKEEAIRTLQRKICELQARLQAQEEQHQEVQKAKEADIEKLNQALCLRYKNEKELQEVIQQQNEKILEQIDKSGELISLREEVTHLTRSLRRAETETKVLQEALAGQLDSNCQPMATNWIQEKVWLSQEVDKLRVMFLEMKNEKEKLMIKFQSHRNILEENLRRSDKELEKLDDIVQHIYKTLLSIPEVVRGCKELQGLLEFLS
In short: as §1

O=C(CCl)Nc1cc(C(F)(F)F)cc(C(F)(F)F)c1 [KBO3]
Liganded (FDFT1 Squalene synthase; FDFT1 Res# 6, uniprot P37268): YES
100 Max (FDFT1 Squalene synthase; uniprot P37268): 59.08
100 ave (FDFT1 Squalene synthase; uniprot P37268): 37.7
500 Max (FDFT1 Squalene synthase; uniprot P37268): 82.93
500 ave (FDFT1 Squalene synthase; uniprot P37268): 82.93
Liganded ([1]; ALDH1L2 Res# 707, uniprot Q3SY69): YES
100 Max ([1]; uniprot Q3SY69): 52.7
100 ave ([1]; uniprot Q3SY69): 52.7
500 ave ([1]; uniprot Q3SY69): 77.55
500 Max ([1]; uniprot Q3SY69, in % (unit assumed)): 77.55

COc1ccc2c(c1)CCCN2C(=O)CCl [KB02]
Liganded [2]: YES
